# Values joined by “and” are separate entries in the source; they are usually repeats but may differ in a detail not shown here. Equal values may be shown once. Read-outs that look alike come from different tables or passages of the source.
# Tests used:
# [1] = tested on: whole blood; assay: eicosanoid release from LPS-stimulated whole blood; assay type: cell-based, human; set-up: LTB4 / 5-HETE / 11,12-EET / 12-HETE: unit not given here; details: for 15-HETE level, whole blood / PGE2 level, whole blood / TxB2 level, whole blood: individual replicate
# From the text: In whole blood, bacterial lipopolysaccharide (LPS) stimulated the release of PGE2, thromboxane B2 (TXB2), and 15-hydroxyeicosatetraenoic acid (HETE). […] The levels of leukotriene B4 (LTB4), 12-HETE, 5-HETE and 11,12-epoxyeicosatrienoic acid (EET) were not affected by LPS stimulation but increased when exogenous AA was included, irrespective of the presence of GK420 (Fig. S1a).
# Fig. 3 Ex vivo suppression of eicosanoid production by GK420. a Eicosanoid levels (pmol/mL) in the plasma of whole blood pretreated with vehicle (DMSO), 3, 10 or 30 µM GK420,) 10 µM arachidonyl trifluoromethyl ketone (ATK), or 1 μM indomethacin (Indo) before stimulation with 1 µg/mL LPS for 24 h. […] All box and whisker plots show the mean (center line), stdev (box), and min and max values (whiskers) from 4 biological replicates. P-values were determined using RM-one way ANOVA with Dunnett’s correction for multiple comparisons.
# Aliquots of 0.4 mL of heparinized whole blood were mixed with 1.6 mL of serum-free RPMI cultivation medium with- or without indomethacin (# I7378, Sigma-Aldrich), GK420, or arachidonyl trifluoromethyl ketone (ATK) (Cayman #62120), prior to the addition of lipopolysaccharides (LPS) (1 μg/mL) to activate the cPLA2α enzyme (LPS was from E. coli 026:B6 γ-irradiated, #L2654, Sigma-Aldrich). Exogenous arachidonic acid (5–10 µM) (#3555, Sigma-Aldrich) was added after 23.5 h, for the final 30 mins of the 24 h stimulation. Following treatment (24 h, 37 °C, 5% CO2), the diluted blood was centrifuged (5992 × g for 10 min at 4 °C) to isolate the plasma from the cell fraction. Plasma samples were stored at −80 °C until analysis. Samples were analyzed at the Lipid Maps Consortium, UCSD according to the standard methods. 200 µL of sample was subjected to solid phase extraction of the eicosanoids using the StrataX solid phase extraction columns from Phenomenex and analyzed by UHPLC-MS/MS using full standards mix.
# [2] = tested on: Jurkat E6.1 cells; assay: cell viability, CTG assay, Jurkat E6.1; assay type: cell-based, human; details: Homo sapiens, read-out: cell viability (0 µM = 100); for viability at 0.007 µM: Jurkat E6.1, 0.007 µM; for viability at 0.015 µM: Jurkat E6.1, 0.015 µM; for viability at 0.031 µM: Jurkat E6.1, 0.031 µM; for viability at 0.062 µM: Jurkat E6.1, 0.062 µM; for viability at 0.125 µM: Jurkat E6.1, 0.125 µM; for viability at 0.25 µM: Jurkat E6.1, 0.25 µM; for viability at 0.5 µM: Jurkat E6.1, 0.5 µM; for viability at 1 µM: Jurkat E6.1, 1 µM; for viability at 2 µM: Jurkat E6.1, 2 µM
# From the text: Data are the mean ± stdev of 3 biological replicates. […] Data are the mean ± stdev of 3 biological replicates.
# Bjørn Tore Gjertsen (University of Bergen, Norway). […] The cell lines were not authenticated.
# [3] = 10 uM + LPS + AA, listed as AVX420
smiles,measurement,setting,value
CCCCCCCOc1ccc(OCC(=O)c2nc(C(=O)OC)cs2)cc1 [GK420],"15-HETE level, whole blood",[1]; 3 uM + LPS,0.23 pmol/mL and 1.1 pmol/mL and 0.41 pmol/mL and 0.42 pmol/mL
same,"PGE2 level, whole blood",[1]; 3 uM + LPS,0.2 pmol/mL and 2.5 pmol/mL and 0.7 pmol/mL and 0.9 pmol/mL
same,"TxB2 level, whole blood",[1]; 3 uM + LPS,1 pmol/mL and 10.1 pmol/mL and 3.2 pmol/mL and 4.5 pmol/mL
same,"15-HETE level, whole blood",[1]; 10 uM + LPS + AA,68.15 pmol/mL and 72.88 pmol/mL and 78.71 pmol/mL and 78.11 pmol/mL
same,"PGE2 level, whole blood",[1]; 10 uM + LPS + AA,11.8 pmol/mL and 18.9 pmol/mL and 15.6 pmol/mL and 18.2 pmol/mL
same,"TxB2 level, whole blood",[1]; 10 uM + LPS + AA,14.6 pmol/mL and 27.5 pmol/mL and 24.1 pmol/mL and 18.1 pmol/mL
same,5-HETE,[1]; [3],59.11 and 60.82 and 63.51 and 71.56
same,"11,12-EET",[1]; [3],12.46 and 11.85 and 10.02 and 12.34
same,12-HETE,[1]; [3],73 and 139.7 and 83.5 and 77.9
same,LTB4,[1]; [3],0.6 and 0.8
same,"15-HETE level, whole blood",[1]; 10 uM + LPS,0.65 pmol/mL and 0.26 pmol/mL and 0.51 pmol/mL and 0.31 pmol/mL
same,"PGE2 level, whole blood",[1]; 10 uM + LPS,1.7 pmol/mL and 0.3 pmol/mL and 0.7 pmol/mL and 0.1 pmol/mL
same,"TxB2 level, whole blood",[1]; 10 uM + LPS,8.4 pmol/mL and 1.9 pmol/mL and 2.9 pmol/mL and 0.8 pmol/mL
same,"15-HETE level, whole blood",[1]; 30 uM + LPS,0.31 pmol/ml (2×) and 0.35 pmol/ml and 0.42 pmol/ml
same,"PGE2 level, whole blood",[1]; 30 uM + LPS,0.05 pmol/ml and 0.4 pmol/ml and 0.1 pmol/ml (2×)
same,"TxB2 level, whole blood",[1]; 30 uM + LPS,0.2 pmol/mL and 3.4 pmol/mL and 1.2 pmol/mL and 1.5 pmol/mL
same,"production of PGE2, TXB2 and 15-HETE","[1]; whole blood, LPS",suppressed their production
same,"production of PGE2, TXB2 and 15-HETE with excess free AA","[1]; whole blood, LPS + exogenous free AA",no effect
same,viability at 0.007 µM,"[2]; Jurkat E6.1, 24 h, 24H",102%
same,viability at 0.015 µM,"[2]; Jurkat E6.1, 24 h, 24H",96%
same,viability at 0.031 µM,"[2]; Jurkat E6.1, 24 h, 24H",99%
same,viability at 0.062 µM,"[2]; Jurkat E6.1, 24 h, 24H",103%
same,viability at 0.125 µM,"[2]; Jurkat E6.1, 24 h, 24H",101%
same,viability at 0.25 µM,"[2]; Jurkat E6.1, 24 h, 24H",90%
same,viability at 0.5 µM,"[2]; Jurkat E6.1, 24 h, 24H",51%
same,viability at 1 µM,"[2]; Jurkat E6.1, 24 h, 24H",28%
same,viability at 2 µM,"[2]; Jurkat E6.1, 24 h, 24H",16%
same,viability at 0.007 µM,"[2]; Jurkat E6.1, 48 h, 48H",101%
same,viability at 0.015 µM,"[2]; Jurkat E6.1, 48 h, 48H",99%
same,viability at 0.031 µM,"[2]; Jurkat E6.1, 48 h, 48H",100%
same,viability at 0.062 µM,"[2]; Jurkat E6.1, 48 h, 48H",104%
same,viability at 0.125 µM,"[2]; Jurkat E6.1, 48 h, 48H",104%
same,viability at 0.25 µM,"[2]; Jurkat E6.1, 48 h, 48H",79%
same,viability at 0.5 µM,"[2]; Jurkat E6.1, 48 h, 48H",39%
same,viability at 1 µM,"[2]; Jurkat E6.1, 48 h, 48H",16%
same,viability at 2 µM,"[2]; Jurkat E6.1, 48 h, 48H",9%
same,viability at 4 µM,"[2]; Jurkat E6.1, 48 h, Jurkat E6.1, 4 µM, 48H",5%
same,viability at 0.007 µM,"[2]; Jurkat E6.1, 72 h, 72H",100%
same,viability at 0.015 µM,"[2]; Jurkat E6.1, 72 h, 72H",97%
same,viability at 0.031 µM,"[2]; Jurkat E6.1, 72 h, 72H",90%
same,viability at 0.062 µM,"[2]; Jurkat E6.1, 72 h, 72H",87%

# Source: paper PMC11696576, “Next generation thiazolyl ketone inhibitors of cytosolic phospholipase A2 α for targeted cancer therapy” (Nature Communications, 2025)
